Data from ChEMBL document CHEMBL3046041, “3D QSAR kNN-MFA studies on thiouracil derivatives as hepatitis C virus inhibitors” (Med Chem Res, 2011).

Biological target: RNA-directed RNA polymerase (Hepacivirus hominis, UniProt O39930)
Assay: Inhibition of Hepatitis C virus NS5B RNA-dependent RNA polymerase
Conditions: read-out: IC50

Chain of RNA-directed RNA polymerase (O39930 whole entry): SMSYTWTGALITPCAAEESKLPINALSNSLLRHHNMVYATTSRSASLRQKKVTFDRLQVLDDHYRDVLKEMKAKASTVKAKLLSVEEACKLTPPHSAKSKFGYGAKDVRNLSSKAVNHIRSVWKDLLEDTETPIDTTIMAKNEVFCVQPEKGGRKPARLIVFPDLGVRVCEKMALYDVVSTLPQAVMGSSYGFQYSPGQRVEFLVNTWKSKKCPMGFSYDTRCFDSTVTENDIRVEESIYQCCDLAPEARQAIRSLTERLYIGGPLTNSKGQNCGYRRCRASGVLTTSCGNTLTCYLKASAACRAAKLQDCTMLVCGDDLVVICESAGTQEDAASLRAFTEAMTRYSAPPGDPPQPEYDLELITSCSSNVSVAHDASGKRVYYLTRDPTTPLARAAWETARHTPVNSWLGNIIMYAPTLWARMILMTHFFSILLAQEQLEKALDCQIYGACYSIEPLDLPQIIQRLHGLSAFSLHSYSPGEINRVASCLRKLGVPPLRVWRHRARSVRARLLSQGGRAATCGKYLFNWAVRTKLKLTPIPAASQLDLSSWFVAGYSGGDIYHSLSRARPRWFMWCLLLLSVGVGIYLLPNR

| Structure (SMILES) | IC50 [µM] |
| --- | --- |
| Cc1ccccc1-c1nc(SCc2cccc([N+](=O)[O-])c2)[nH]c(=O)c1C#N | 37 |
| Cc1cccc(-c2nc(SCc3ccc(OC(F)(F)F)cc3)[nH]c(=O)c2C#N)c1 | 8.6 |
| N#Cc1c(-c2ccc(Br)cc2)nc(SCc2ccc(OC(F)(F)F)cc2)[nH]c1=O | 8.7 |
| Cc1ccccc1-c1nc(SCc2ccccc2Br)[nH]c(=O)c1C#N | 32 |
| N#Cc1c(-c2ccc(Br)cc2)nc(SCCC(=O)Oc2ccccc2)[nH]c1=O | 30 |
| N#Cc1c(-c2ccc(F)cc2F)nc(SCc2ccccc2Br)[nH]c1=O | 13 |
| N#Cc1c(-c2ccc(F)cc2F)nc(SCc2cccc([N+](=O)[O-])c2)[nH]c1=O | 32 |
| Cc1cccc(-c2nc(SCc3cccc([N+](=O)[O-])c3)[nH]c(=O)c2C#N)c1 | 20 |
| Cc1cccc(CSc2nc(-c3ccc(Br)cc3)c(C#N)c(=O)[nH]2)c1 | 11 |
| CC(C)c1ccc(-c2nc(SCc3ccccc3Br)[nH]c(=O)c2C#N)cc1 | 3.8 |
| N#Cc1c(-c2ccc(Br)cc2)nc(SCc2ccccc2Br)[nH]c1=O | 10 |
| N#Cc1c(-c2cccc(C(F)(F)F)c2)nc(SCc2cccc([N+](=O)[O-])c2)[nH]c1=O | 13 |
| Cc1cccc(CSc2nc(-c3ccc(C(C)C)cc3)c(C#N)c(=O)[nH]2)c1 | 12 |
| N#Cc1c(-c2ccc(Br)cc2)nc(SCc2cccc([N+](=O)[O-])c2)[nH]c1=O | 14 |
| CC(C)c1ccc(-c2nc(SCC3CCCCO3)[nH]c(=O)c2C#N)cc1 (stereo unspecified) | 17 |
| CCCCCSc1nc(-c2ccc(Br)cc2)c(C#N)c(=O)[nH]1 | 11 |
| Cc1cccc(CSc2nc(-c3cc(Cl)cc(Cl)c3)c(C#N)c(=O)[nH]2)c1 | 29 |

| Structure (SMILES) | IC50 [µM] |
| --- | --- |
| CCCCCSc1nc(-c2ccc(C(C)C)cc2)c(C#N)c(=O)[nH]1 | 12 |
| CCCCCSc1nc(-c2ccc(F)cc2F)c(C#N)c(=O)[nH]1 | 12 |
| CCCCCSc1nc(-c2ccccc2C)c(C#N)c(=O)[nH]1 | 18 |
| N#Cc1c(-c2ccc(Cl)cc2Cl)nc(SCCCc2ccccc2)[nH]c1=O | 12 |
| N#Cc1c(-c2ccc(Cl)cc2Cl)nc(SCc2ccc(OC(F)(F)F)cc2)[nH]c1=O | 11 |
| CCCCCSc1nc(-c2cccc(C)c2)c(C#N)c(=O)[nH]1 | 18 |
| CC(C)c1ccc(-c2nc(SCc3ccc(OC(F)(F)F)cc3)[nH]c(=O)c2C#N)cc1 | 9.9 |
| Cc1cccc(CSc2nc(-c3ccc(F)cc3F)c(C#N)c(=O)[nH]2)c1 | 57 |
| Cc1cccc(CSc2nc(-c3cc(F)cc(F)c3)c(C#N)c(=O)[nH]2)c1 | 27 |
| CC(C)c1ccc(-c2nc(SCc3cccc([N+](=O)[O-])c3)[nH]c(=O)c2C#N)cc1 | 10 |
| Cc1cccc(CSc2nc(-c3ccccc3C)c(C#N)c(=O)[nH]2)c1 | 14 |
| Cc1cccc(CSc2nc(-c3ccc(Cl)cc3Cl)c(C#N)c(=O)[nH]2)c1 | 33 |
| CCCCCSc1nc(-c2ccc(Cl)cc2Cl)c(C#N)c(=O)[nH]1 | 17 |
| Cc1cccc(CSc2nc(-c3cccc(C)c3)c(C#N)c(=O)[nH]2)c1 | 22 |
| N#Cc1c(-c2ccc(Br)cc2)nc(SCC2CCCCO2)[nH]c1=O (stereo unspecified) | 50 |
| N#Cc1c(-c2cccc(C(F)(F)F)c2)nc(SCCC(=O)Oc2ccccc2)[nH]c1=O | 13 |
| CCCCCSc1nc(-c2cccc(C(F)(F)F)c2)c(C#N)c(=O)[nH]1 | 12 |

The next lines start with the values.

| IC50 [µM] | Structure (SMILES) |
| --- | --- |
| 14 | Cc1cccc(CSc2nc(-c3ccccc3C(F)(F)F)c(C#N)c(=O)[nH]2)c1 |
| 7.1 | N#Cc1c(-c2ccc(Br)cc2)nc(SCc2ccccc2C(F)(F)F)[nH]c1=O |
| 19 | COc1cc(CSc2nc(-c3ccc(F)cc3F)c(C#N)c(=O)[nH]2)cc(OC)c1 |
| 12 | COc1cc(CSc2nc(-c3ccccc3C(F)(F)F)c(C#N)c(=O)[nH]2)cc(OC)c1 |
| 20 | CCCCCSc1nc(-c2ccccc2C(F)(F)F)c(C#N)c(=O)[nH]1 |
| 34 | COc1cc(CSc2nc(-c3cc(Cl)cc(Cl)c3)c(C#N)c(=O)[nH]2)cc(OC)c1 |
| 25 | COc1cc(CSc2nc(-c3ccccc3C)c(C#N)c(=O)[nH]2)cc(OC)c1 |
| 15 | COc1cc(CSc2nc(-c3cc(F)cc(F)c3)c(C#N)c(=O)[nH]2)cc(OC)c1 |
| 25 | COc1cc(CSc2nc(-c3ccc(C(C)C)cc3)c(C#N)c(=O)[nH]2)cc(OC)c1 |
| 21 | N#Cc1c(-c2ccccc2C(F)(F)F)nc(SCc2ccccc2Br)[nH]c1=O |
| 13 | COc1cc(CSc2nc(-c3ccc(Br)cc3)c(C#N)c(=O)[nH]2)cc(OC)c1 |
| 34 | COc1cc(CSc2nc(-c3ccc(Cl)cc3Cl)c(C#N)c(=O)[nH]2)cc(OC)c1 |
| 11 | COc1cc(CSc2nc(-c3cccc(C(F)(F)F)c3)c(C#N)c(=O)[nH]2)cc(OC)c1 |
| 14 | Cc1cccc(CSc2nc(-c3cccc(C(F)(F)F)c3)c(C#N)c(=O)[nH]2)c1 |
| 30 | COc1cc(CSc2nc(-c3cccc(C)c3)c(C#N)c(=O)[nH]2)cc(OC)c1 |
| 9.2 | N#Cc1c(-c2ccccc2C(F)(F)F)nc(SCc2ccc(OC(F)(F)F)cc2)[nH]c1=O |

Same assay, conditions: read-out: pIC50 (converted)

| IC50 [µM] | Structure (SMILES) |
| --- | --- |
| 7.24 | N#Cc1c(-c2ccc(Br)cc2)nc(SCc2ccccc2C(F)(F)F)[nH]c1=O |
